Assay results as given in patent US20210077478A1, “METHOD OF COUNTERING RESPIRATORY DEPRESSION VIA ACTIVATION OF NEURONAL HETEROMERIC NICOTINIC ACETYLCHOLINE RECEPTORS” (THE GOVERNORS OF THE UNIVERSITY OF ALBERTA, priority 2017, published 2021).
Entries after “also recorded” stand apart in the source; their conditions may differ. Read-outs that look alike come from different tables or passages of the source.

How the values were obtained:
newborn rats [1] = test: Fentanyl-induced respiratory depression in rat pups (postnatal day 3-4), plethysmography; assay type: in vivo
adult rats [2] = conditions: rat, in vivo, sc, 0.06 mg/kg
[3] = system: brainstem-spinal cord in vitro preparations; test: Brainstem-spinal cord in vitro preparation, respiratory rhythm (C4 / XII nerve recordings); parameters: species or system rat; conditions: for fR in the presence of the antagonist: antagonist 400 nM
Procedure: Brainstem-spinal cord and medullary slice preparations were obtained from neonatal Sprague-Dawley rats. The rats were anesthetized with metofane, decerebrated, and the brainstem-spinal cord (BSSC) and medullary slice dissected (Smith et al., 1990; 1991). BSSC was continuously perfused with modified Krebs solution. A single rhythmic medullary slice was cut (500-650 μm thick) and continuously perfused with bathing solution. Inspiratory activity was recorded from the fourth ventral cervical nerve roots of BSSC or XII nerve rootlets of the medullary slice using an extracellular glass electrode.
Neonatal (postnatal day 1-3) rats were anesthetized with metofane, decerebrated and the brainstem-spinal cord dissected as previously reported. The neuraxis was continuously perfused at 27°±1° C. (5 ml/min; chamber volume, 3 ml) with modified Kreb's solution that contained 128 mM NaCl, 3.0 mM KCl, 1.5 mM CaCl2, 1.0 mM MgCl2, 23.5 mM NaHCO3, 0.5 mM NaH2PO4, and 30 mM d-glucose equilibrated with 95% O2-5% CO2 (pH 7.4).
A single transverse slice containing the preBötC and more caudal reticular formation regions was then cut (700 μm thick) from brainstem-spinal cord preparations perfused with a bathing solution identical to that used for B SSC preparation with the exception that the KCl concentration was increased to 9 mM to facilitate long-term generation of stable rhythm. Recordings from the fourth ventral cervical nerve roots of brainstem-spinal cord or hypoglossal nerve roots of medullary slice preparations were amplified, rectified, low-pass filtered, and recorded to a computer, using an analog-digital converter (Axon Instruments Digidata; Molecular Devices, Sunnyvale, Calif.) and data acquisition software (Axon Instruments AxoScope).

[4] = system: medullary slice (preBötC and XII motoneurons); parameters: species or system rat
adult rats [5] = test: Baseline ventilation after drug alone, plethysmography in adult rats; assay type: in vivo, rat; conditions: for baseline minute ventilation: drug alone: A85380 0.03, Rivanicline 3, NS9283 10, PNU282987 1-15 mg/kg
newborn rats [6] = test: Propofol-induced respiratory depression in newborn rats (P3); assay type: in vivo, rat
Procedure: In a further experiment, A85380 (0.03 mg/kg, ip) and propofol (30 mg/kg, ip) were co-administered in newborn rats in vivo (P3). In the control group, vehicle (saline) was administered with 30 mg/kg propofol (FIG. 6A). […] Without being bound by any theory, targeting of α4β2 nAChRs may be a potent means of alleviating the effects of drugs (e.g. propofol) causing respiratory depression via GABAA receptor mechanisms in vivo.

rat pups = conditions: in vivo
adult rats [7] = test: Formalin test (licking and lifting) in adult rats; assay type: in vivo, rat
[8] = system: P0 rat brainstem-spinal cord preparation with C2 hemisection; test: C2 hemisection spinal cord injury model, brainstem-spinal cord preparation, C4 recordings; conditions: A85380 25 nM bath
Source text: One of the primary causes of morbidity and mortality associated with spinal cord injury is loss of normal functioning of the respiratory musculature. This is caused by a reduced synaptic drive from respiratory rhythm generating centers onto respiratory spinal motoneurons. An in vitro newborn brainstem spinal cord rat model of spinal cord injury (Zimmer and Goshgarian, 2005) was used to test the efficacy of targeting α4β2 nAChRs to alleviate weak respiratory drive. […] Rectified and integrated signals were made from both C4 recordings from a P0 rat brainstem-spinal cord preparation showing the respiratory activity both contralateral (A: top traces) and ipsilateral (B: bottom traces) to one side C2 hemisection. There was a marked reduction in neural activity after the hemisection in ipsilateral nerve, but respiratory-like activity was still observed occasionally and was correlated with the respiratory activity on the contralateral nerve.

[9] = oral administration, compared with sazetidine-A (Kong et al. 2015); cited from earlier work
adult rats [10] = conditions: rat, in vivo, iv
(α4)2(β2)3 receptors = (α4)2(β2)3 receptors (Homo sapiens, UniProt P17787+P43681); conditions: Zwart et al., 2008; Carbone et al., 2009; cited from earlier work
(α4)3(β2)2 receptors = (α4)3(β2)2 receptors (Homo sapiens, UniProt P17787+P43681); conditions: Zwart et al., 2008; Carbone et al., 2009; cited from earlier work
Chain of (α4)3(β2)2 receptors (P43681 29-627 limits assumed): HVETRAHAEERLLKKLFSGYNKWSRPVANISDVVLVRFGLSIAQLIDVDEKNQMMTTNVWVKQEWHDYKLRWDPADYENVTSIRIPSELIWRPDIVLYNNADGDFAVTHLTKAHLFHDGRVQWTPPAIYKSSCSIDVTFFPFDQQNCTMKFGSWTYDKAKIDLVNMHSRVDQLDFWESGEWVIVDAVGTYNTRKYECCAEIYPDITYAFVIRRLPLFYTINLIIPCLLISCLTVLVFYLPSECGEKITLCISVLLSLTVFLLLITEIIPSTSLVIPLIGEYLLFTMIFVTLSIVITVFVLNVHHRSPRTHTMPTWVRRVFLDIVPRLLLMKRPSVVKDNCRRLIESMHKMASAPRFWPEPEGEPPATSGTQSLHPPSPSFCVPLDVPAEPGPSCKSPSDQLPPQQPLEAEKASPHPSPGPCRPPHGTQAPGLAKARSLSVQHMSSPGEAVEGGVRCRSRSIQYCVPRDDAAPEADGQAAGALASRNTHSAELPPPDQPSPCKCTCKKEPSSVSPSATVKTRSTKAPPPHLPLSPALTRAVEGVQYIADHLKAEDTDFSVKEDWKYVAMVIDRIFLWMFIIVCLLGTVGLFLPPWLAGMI
Chain of (α4)3(β2)2 receptors (P17787 26-502): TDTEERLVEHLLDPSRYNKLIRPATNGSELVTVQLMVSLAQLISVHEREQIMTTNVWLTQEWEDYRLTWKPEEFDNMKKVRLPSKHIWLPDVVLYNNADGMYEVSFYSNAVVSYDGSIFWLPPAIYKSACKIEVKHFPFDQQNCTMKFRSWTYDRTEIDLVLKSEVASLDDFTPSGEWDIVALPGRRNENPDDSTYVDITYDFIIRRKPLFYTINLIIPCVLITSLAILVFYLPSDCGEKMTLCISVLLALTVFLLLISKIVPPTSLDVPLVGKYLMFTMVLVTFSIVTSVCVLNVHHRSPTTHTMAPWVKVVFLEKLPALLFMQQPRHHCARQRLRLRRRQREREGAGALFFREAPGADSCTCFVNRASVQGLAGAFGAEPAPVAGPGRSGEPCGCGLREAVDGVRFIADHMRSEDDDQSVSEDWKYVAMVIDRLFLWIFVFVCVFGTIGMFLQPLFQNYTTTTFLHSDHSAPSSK

Chain of (α4)2(β2)3 receptors (P43681 29-627 limits assumed): as the sequence (P43681 29-627 limits assumed) above
Chain of (α4)2(β2)3 receptors (P17787 26-502): as the sequence (P17787 26-502) above

## CN1CCCC1CCc1ccc(S)cc1 (racemic) [SIB 1553A, (±)-4-[2-((N-methyl)-2-pyrrolidinyl)ethyl]thiophenol]
Newborn rats [1]; DHβE 6 mg/kg co-administration with fentanyl, SIB 1553A 40 mg/kg
  SIB 1553A effects with DHβE co-administered: only partially blocked
Newborn rats [1]; fentanyl 35 μg/kg + mecamylamine 6 mg/kg, SIB 1553A 40 mg/kg
  fentanyl-induced respiratory depression with mecamylamine co-administered: had no effects
Newborn rats [1]; fentanyl 35 μg/kg, SIB 1553A 40 mg/kg sc
  fentanyl-induced decrease in tidal volume (VT): without marked effects
Newborn rats [1]; fentanyl 35 μg/kg, SIB 1553A 40 mg/kg sc 7 min later
  fentanyl-induced decrease in respiratory rate (fR): partially reversed

## c1cncc(OC[C@@H]2CCN2)c1 [A85380, 3-(2(s)-azetidinylmethoxy) pyridine]
Adult rats [2]
  paw withdrawal latency to thermal stimuli, baseline: marked increase in paw withdrawal latency
[3]
  baseline fR: increased baseline fR
  baseline respiratory amplitude: without marked effects
  baseline respiratory frequency: increased baseline respiratory frequency
  concentrations at which baseline fR is increased: above 5 nM
  ethanol and pentobarbital-induced respiratory depression: alleviated
  reversal of DAMGO-induced respiratory depression (decrease in fR and burst area): clear reversal
  reversal of DAMGO-induced respiratory depression (frequency and amplitude): clear reversal
  weak respiratory rhythm and XII motor output: increased respiratory frequency, amplitude and bursting duration
[4]
  DAMGO-induced suppression of fR: alleviated
  DAMGO-induced suppression of respiratory frequency and amplitude: alleviated
  baseline respiratory burst area: decreased baseline respiratory burst area
  baseline respiratory frequency: increased respiratory frequency; also recorded: increased fR
  loss of respiratory drive and motor output in low potassium: potently reversed the loss of respiratory drive and motor output
  respiratory amplitude: decreased the respiratory amplitude
Adult rats [5]
  baseline minute ventilation: 97.8±3.1 % of control
Newborn rats [6]; A85380 0.03 mg/kg ip co-administered with propofol 30 mg/kg ip
  propofol-induced respiratory depression: dramatically prevented
Rat pups
  significant alteration of baseline VE: Neither
Adult rats [7]; rat, in vivo, sc, 0.06 mg/kg
  nocifensive response 20-40 minutes post formalin, baseline: decreased nocifensive response
[8]
  ipsilateral respiratory amplitude after C2 hemisection: partially increased
  respiratory frequency after C2 hemisection: increased the respiratory frequency

## C[C@@H](NC(=O)[C@@H](N)Cc1ccc(O)cc1)C(=O)NCC(=O)N(C)[C@@H](Cc1ccccc1)C(=O)NCCO [DAMGO, [D-Ala2, NMe-Phe4, Gly-ol5]-enkephalin]
[3]
  respiratory depression by DAMGO (fR and burst area): suppressed fR and burst area
[4]
  effect of DAMGO on fR: caused a suppression of fR
  effect of DAMGO on respiratory frequency and amplitude: induced suppression of respiratory frequency and amplitude

## CCN1C[C@]2(COC(=O)c3ccccc3N3C(=O)C[C@H](C)C3=O)CC[C@H](OC)[C@@]34[C@@H]5C[C@H]6[C@H](OC)[C@@H]5[C@](O)(C[C@@H]6OC)[C@](O)([C@@H](OC)[C@H]23)[C@@H]14 [MLA]
[3]
  fR in the presence of the antagonist: fR was slower

## N#Cc1cccc(-c2nc(-c3cccnc3)no2)c1 [NS9283, 3-[3-(3-Pyridinyl)-1,2,4-oxadiazol-5yl]benzonitrile]
[3]; C4 discharge, A85380 25 nM, Rivanicline 0.5 μM, NS9283 15 μM
  baseline respiratory amplitude: without marked effects
[3]; C4 discharge, bath A85380 25 nM, Rivanicline 0.5 μM, NS9283 15 μM, PNU282987 up to 20 μM (Example 3)
  baseline respiratory frequency: increased baseline respiratory frequency
[3]; bath after DAMGO: A85380 25 nM, Rivanicline 0.5 μM, NS9283 15 μM, PNU282987 1-20 μM (Example 3)
  reversal of DAMGO-induced respiratory depression (frequency and amplitude): clear reversal
Adult rats [5]
  baseline minute ventilation: 103.3±4.2 % of control

## O=C(N[C@H]1CN2CCC1CC2)c1ccc(Cl)cc1 [PNU282987]
[3]
  baseline fR: very modest increase in fR
  baseline respiratory frequency: very modest increase in respiratory frequency
[4]
  baseline respiratory frequency: had no effect
Adult rats [5]
  baseline minute ventilation: 102.9±4.1 % of control
Rat pups
  significant alteration of baseline VE: Neither

## CNCC/C=C/c1cccnc1 [Rivanicline, (E)-N-Methyl-4-(3-pyridinyl)-3-butene-1-amine]
[3]
  baseline respiratory amplitude: without marked effects
  baseline respiratory frequency: increased baseline respiratory frequency
  reversal of DAMGO-induced respiratory depression (frequency and amplitude): clear reversal
Adult rats [5]
  baseline minute ventilation: 98.4±3.6 % of control

## C(#Cc1cncc(OC[C@@H]2CCN2)c1)c1ccccc1 [VMY-2-95, 3-[(2S)-2-Azetidinylmethoxy]-5-(2-phenylethynyl)-pyridine]
[9]
  penetration of the blood-brain barrier: better penetration of the blood-brain barrier
Rat pups
  significant alteration of baseline VE: Neither

## CN1[C@@H](CC(=O)c2ccccc2)CCC[C@H]1C[C@H](O)c1ccccc1 [lobeline, 2-((2R,6S)-6-((S)-2-Hydroxy-2-phenylethyl)-1-methylpiperidin-2-yl)-1-phenylethanone]
Adult rats [10]
  loss of righting reflex: 22.4 ± 7.3 min
Adult rats [5]; lobeline 3 mg/kg iv alone
  VE: 116.2±8.7 % of control
Adult rats [5]; lobeline 6 mg/kg ip alone
  VE: did not affect VE
Adult rats [7]; lobeline 3 mg/kg iv alone
  nocifensive response, phase II: tended to decrease the nocifensive response in the phase II, but the difference is not significant
Adult rats [7]; lobeline 3 mg/kg iv alone, formalin 30 min post lobeline
  nocifensive response, phase I: decreased nocifensive response

## CN1CCCC1c1cccnc1 (centres unmarked) [nicotine]
[3]
  baseline fR: caused an increase of baseline fR
  concentrations at which baseline fR is increased: above 200 nM
  reversal of DAMGO-induced respiratory depression (decrease in fR and burst area): clear reversal
Rat pups
  significant alteration of baseline VE: Neither

## CC(C)c1cccc(C(C)C)c1O [propofol]
Newborn rats [6]; propofol 30 mg/kg ip
  duration of propofol respiratory depression: over 30 minutes
  onset of propofol respiratory depression: ≤ 5 min
Newborn rats [6]; propofol 30 mg/kg ip with saline
  respiratory depression by propofol: marked depression of respiratory frequency and amplitude

## OCCCCC#Cc1cncc(OC[C@@H]2CCN2)c1 [sazetidine-A, 6-[5-[(2S)-2-Azetidinylmethoxy]-3-pyridinyl]-5-hexyn-1-ol]
(α4)2(β2)3 receptors
  agonist activity: full agonist activity
Rat pups
  significant alteration of baseline VE: Neither
(α4)3(β2)2 receptors
  agonist activity: nearly no agonist activity

## dihydro-beta-erythroidine [DHβE]
[3]
  fR in the presence of the antagonist: fR was slower
[4]; DHβE 200 nM subsequent bath application
  reversal of A85380 (25 nM) effects by antagonist: reversed
Rat pups
  significant alteration of baseline VE: Neither
